Seven test systems from the supplement of paper PMC10331698 can be followed below.

± gives the standard deviation of the averaged measurements.

What all share (assay): LOEC (log10 uM (lowest observed effect concentration))
Compound in assay [1]: FC(F)(I)C(F)(F)C(F)(F)C(F)(F)C(F)(F)C(F)(F)I [1,6-Diiodoperfluorohexane]
As to the method: (§1)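 BioMAP Diversity Plus panel in human primary cell co-cultures, 4 concentrations in duplicate blinded samples. Responses are log10 fold change versus DMSO control, processed with tcpl v2.1.0. A hit is called when responses at any concentration exceed the cutoff (the larger of 3*bmad or log10(1.2)); the lowest observed effect concentration (modl_ga, log10 uM) is reported for hits.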

Compound in assay [2]: C=CC(=O)OCC(F)(F)C(F)(F)C(F)(F)C(F)(F)COC(=O)C=C [1H,1H,6H,6H-Perfluorohexane-1,6-diol diacrylate]
As to the method: as §1

Compound in assay [3]: OCCCC(F)(F)C(F)(F)C(F)(F)C(F)(F)C(F)(F)C(F)(F)C(F)(F)C(F)(F)F [3-(Perfluorooctyl)propanol]
As to the method: as §1

Compound in a further assay: OC(C(F)(F)F)(C(F)(F)F)C(O)(C(F)(F)F)C(F)(F)F [Perfluoropinacol]
As to the method: as §1

Compound in assay [4]: O=C(CC(=O)C(F)(F)C(F)(F)C(F)(F)F)c1cccs1 [(Perfluorobutyryl)-2-thenoylmethane]
As to the method:
as §1

Compound in assay [5]: OCC(F)(F)C(F)(F)C(F)(F)C(F)(F)C(F)(F)C(F)(F)C(F)(F)C(F)(F)CO [1H,1H,10H,10H-Perfluorodecane-1,10-diol]
As to the method: as §1

Compound in the next assay: CN(Cc1cnc2nc(N)nc(N)c2n1)c1ccc(C(=O)N[C@@H](CCC(=O)O)C(=O)O)cc1 [Methotrexate]
The method, then: as §1

Compound in assay [6]: OCCC(F)(F)C(F)(F)C(F)(F)C(F)(F)C(F)(F)C(F)(F)C(F)(F)C(F)(F)F [8:2 Fluorotelomer alcohol]
The method, then: as §1

Compound in assay [7]: O=S(=O)(OCC(F)(F)F)C(F)(F)C(F)(F)C(F)(F)C(F)(F)F [2,2,2-Trifluoroethyl perfluorobutanesulfonate]
The method, then: as §1

Compound in assay [8]: FC(F)(F)C(F)(F)C(F)(F)C(F)(F)CCI [1H,1H,2H,2H-Perfluorohexyl iodide]
As to the method: as §1

Compound in assay [9]: C=CC(=O)OCC(F)(F)C(F)(F)C(F)(F)C(F)(F)C(F)(F)C(F)(F)C(F)(F)C(F)F [1H,1H,9H-Perfluorononyl acrylate]
The method, then: as §1

Compound in assay [10]: C=CC(=O)OCCC(F)(F)C(F)(F)C(F)(F)C(F)(F)C(F)(F)C(F)(F)C(F)(F)C(F)(F)F [8:2 Fluorotelomer acrylate]
The method, then: as §1

Compound in assay [11]: OCC(F)(F)C(F)(F)C(F)(F)C(F)(F)C(F)(F)C(F)(F)C(F)(F)C(F)(F)C(F)(F)C(F)(F)C(F)(F)F [11:1 Fluorotelomer alcohol]
The method, then: as §1

Compound in assay [12]: Cc1ccc(S(=O)(=O)OCC(F)(F)C(F)(F)C(F)(F)C(F)(F)C(F)(F)C(F)F)cc1 [1H,1H,7H-Perfluoroheptyl 4-methylbenzenesulfonate]
The method, then: as §1

Compound in a further assay: O=C(O)C(F)(F)C(F)(F)C(F)(F)C(F)(F)C(F)(F)C(F)(F)C(F)(F)F [Perfluorooctanoic acid]
As to the method: as §1

Compound in assay [13]: O=P(O)(O)CCC(F)(F)C(F)(F)C(F)(F)C(F)(F)C(F)(F)C(F)(F)F [2-(Perfluorohexyl)ethylphosphonic acid]
As to the method: as §1

As for BT sIgG down, the “LOEC (log10 uM)” value in assay [1] is 1.78; in assay [2], 0.845; in assay [3], 1.78; with Perfluoropinacol, 0.845; in assay [4], 1.3; in assay [5], 1.78. The entries for the “LOEC (log10 uM)” value (with Methotrexate; in assay [6]) were 0 and 1.78, respectively.

As for hDFCGF ITAC down, the “LOEC (log10 uM)” value in [1] was determined as 0.845; in assay [2], 0.301; in [3], 0.845; with Perfluoropinacol, 0.801 ± 0.71; in [7] it was 1.78; in [4] it was 1.3. Further, the “LOEC (log10 uM)” value in assay [5] was determined as 1.78; in assay [6] it was 1.3; in [8], 1.78; in assay [9], 1.54 ± 0.34.

With KF3CT MMP9 down, the “LOEC (log10 uM)” value turned out to be 0.845 in assay [1]; 1.3 in assay [2]; 1.3 in assay [3]; 1.54 ± 0.34 in assay [10]; 1.78 with Perfluoropinacol; 0.845 in assay [4]. The “LOEC (log10 uM)” value in assay [6] stood at 1.07 ± 0.32.

Consider BT Bcell Proliferation down, for which the “LOEC (log10 uM)” value in [1] is 1.54 ± 0.34; in assay [2], 0.845; in [3], 1.3; with Perfluoropinacol it was 1.54 ± 0.34; in assay [4], 1.3; in [5], 1.78. In addition, the “LOEC (log10 uM)” value in the assay with Methotrexate is 0; in assay [11], -0.96 ± 0.37; in [6] it was 1.78; in [9], 1.78.

Take SAg Proliferation down: the “LOEC (log10 uM)” value turned out to be 1.3 in assay [1]; 0.845 in [2]; 1.3 in assay [3]; 1.3 with Perfluoropinacol; 0.845 in assay [4]; 0.477 in the assay with Methotrexate. Also, the “LOEC (log10 uM)” value in assay [11] is -0.96 ± 0.37; in assay [6] it was 1.3; in [8], 1.78; in [9], 1.3.

Take KF3CT IL8 down: the “LOEC (log10 uM)” value in assay [12] is 1.3; in assay [1], 1.07 ± 0.32; in assay [2], 1.3; in assay [3], 1.3; in assay [10] it was 1.54 ± 0.34; in assay [5] it was 1.78.

Regarding hDFCGF Proliferation up, the results for the “LOEC (log10 uM)” value (with Perfluorooctanoic acid; in assay [13]) were 1.3 and 1.78, respectively.
